Values quoted from earlier work as cited in patent US20230139888A1, “MOISTURIZING PEEL CREAM FOR ENHANCING SKIN” (L'OREAL, priority 2021, published 2023).

Settings: acute oral toxicity, mutagenicity, skin irritation, skin sensitization, phototoxicity

## CC(c1ccccc1)c1ccc(O)cc1O (stereo not shown) [Phenylethyl resorcinol]
  adverse effects in basic toxicological tests: has not shown adverse effects
